Assay results published in ChEMBL document CHEMBL5291721, “A preclinical secondary pharmacology resource illuminates target-adverse drug reaction associations of marketed drugs” (Nat Commun, 2023).

How the values were obtained:
Mu-type opioid receptor = Mu-type opioid receptor (Homo sapiens, UniProt P35372)
Adenosine receptor A2a = Adenosine receptor A2a (Homo sapiens, UniProt P29274)
[1] = molecular target: Beta-1 adrenergic receptor (Homo sapiens, UniProt P08588); assay type: functional
[2] = molecular target: Gamma-aminobutyric acid receptor subunit alpha-1 (Rattus norvegicus, UniProt P62813); assay type: functional
Chain of Gamma-aminobutyric acid receptor subunit alpha-1 (P62813 whole entry): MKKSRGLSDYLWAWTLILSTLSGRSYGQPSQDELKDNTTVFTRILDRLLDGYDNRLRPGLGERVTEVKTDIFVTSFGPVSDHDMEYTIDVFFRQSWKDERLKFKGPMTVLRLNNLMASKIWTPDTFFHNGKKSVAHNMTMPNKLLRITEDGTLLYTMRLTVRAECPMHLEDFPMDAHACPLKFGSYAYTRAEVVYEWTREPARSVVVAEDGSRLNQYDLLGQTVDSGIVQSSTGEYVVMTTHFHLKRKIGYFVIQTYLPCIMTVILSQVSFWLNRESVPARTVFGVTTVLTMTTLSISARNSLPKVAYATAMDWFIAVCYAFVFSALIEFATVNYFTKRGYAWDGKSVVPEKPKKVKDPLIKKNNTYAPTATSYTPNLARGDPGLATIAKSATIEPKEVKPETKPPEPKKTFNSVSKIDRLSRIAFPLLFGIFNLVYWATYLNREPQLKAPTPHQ

[3] = molecular target: T1, Alpha-1A adrenergic receptor (Homo sapiens, UniProt P35348); assay type: functional, cell-based
T1 sequence (P35348 whole entry): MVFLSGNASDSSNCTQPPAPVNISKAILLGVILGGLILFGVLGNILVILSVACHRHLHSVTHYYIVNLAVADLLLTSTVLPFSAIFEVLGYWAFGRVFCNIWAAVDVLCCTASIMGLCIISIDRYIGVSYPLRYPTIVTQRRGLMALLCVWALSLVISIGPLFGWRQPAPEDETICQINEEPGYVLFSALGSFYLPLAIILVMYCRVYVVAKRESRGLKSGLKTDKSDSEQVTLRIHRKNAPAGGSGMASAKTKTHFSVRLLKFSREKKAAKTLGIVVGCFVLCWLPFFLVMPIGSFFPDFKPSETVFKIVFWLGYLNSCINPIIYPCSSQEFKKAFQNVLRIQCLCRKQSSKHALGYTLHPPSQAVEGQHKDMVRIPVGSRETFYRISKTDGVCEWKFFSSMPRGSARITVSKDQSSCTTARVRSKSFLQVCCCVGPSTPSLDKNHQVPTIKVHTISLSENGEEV

[4] = molecular target: T2, Gastrin/cholecystokinin type B receptor (Homo sapiens, UniProt P32239)
T2 sequence (P32239 whole entry): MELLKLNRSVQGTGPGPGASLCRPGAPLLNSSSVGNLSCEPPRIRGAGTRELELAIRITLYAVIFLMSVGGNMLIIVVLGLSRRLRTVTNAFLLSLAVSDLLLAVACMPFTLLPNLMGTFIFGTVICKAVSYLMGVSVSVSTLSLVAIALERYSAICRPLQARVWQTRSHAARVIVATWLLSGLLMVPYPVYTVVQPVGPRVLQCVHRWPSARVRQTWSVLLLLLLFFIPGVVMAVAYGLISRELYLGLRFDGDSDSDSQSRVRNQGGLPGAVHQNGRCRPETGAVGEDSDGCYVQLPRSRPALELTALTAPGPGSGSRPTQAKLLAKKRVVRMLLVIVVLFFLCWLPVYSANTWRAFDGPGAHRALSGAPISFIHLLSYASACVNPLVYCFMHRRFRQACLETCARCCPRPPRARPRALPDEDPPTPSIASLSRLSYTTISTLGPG

[5] = molecular target: Glutamate receptor ionotropic, NMDA 1 (Rattus norvegicus, UniProt P35439)
[6] = molecular target: 3',5'-cyclic-AMP phosphodiesterase 4D (Homo sapiens, UniProt Q08499); assay type: functional
Chain of 3',5'-cyclic-AMP phosphodiesterase 4D (Q08499 whole entry): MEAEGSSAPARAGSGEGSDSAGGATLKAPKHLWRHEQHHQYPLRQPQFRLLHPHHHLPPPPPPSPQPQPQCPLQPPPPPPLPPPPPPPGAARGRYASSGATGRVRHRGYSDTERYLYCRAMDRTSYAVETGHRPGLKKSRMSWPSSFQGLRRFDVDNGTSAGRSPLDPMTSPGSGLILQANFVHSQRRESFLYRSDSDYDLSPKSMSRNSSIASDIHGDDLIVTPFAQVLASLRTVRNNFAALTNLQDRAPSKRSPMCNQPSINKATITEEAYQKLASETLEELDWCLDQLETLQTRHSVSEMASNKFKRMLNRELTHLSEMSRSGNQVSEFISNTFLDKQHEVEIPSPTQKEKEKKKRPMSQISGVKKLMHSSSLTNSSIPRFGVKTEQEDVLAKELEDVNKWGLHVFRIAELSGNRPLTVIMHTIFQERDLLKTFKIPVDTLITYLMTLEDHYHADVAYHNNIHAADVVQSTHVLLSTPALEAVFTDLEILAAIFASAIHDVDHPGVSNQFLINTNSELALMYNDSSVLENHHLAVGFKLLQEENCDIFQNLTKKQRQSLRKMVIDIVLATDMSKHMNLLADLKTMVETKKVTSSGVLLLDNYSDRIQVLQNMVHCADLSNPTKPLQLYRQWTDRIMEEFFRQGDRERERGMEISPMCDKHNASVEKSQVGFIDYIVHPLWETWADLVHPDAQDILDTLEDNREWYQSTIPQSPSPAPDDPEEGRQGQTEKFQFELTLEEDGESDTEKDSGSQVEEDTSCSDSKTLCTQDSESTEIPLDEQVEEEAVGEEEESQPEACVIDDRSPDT

[7] = molecular target: Growth hormone secretagogue receptor type 1 (Homo sapiens, UniProt Q92847)
Chain of Growth hormone secretagogue receptor type 1 (Q92847 whole entry): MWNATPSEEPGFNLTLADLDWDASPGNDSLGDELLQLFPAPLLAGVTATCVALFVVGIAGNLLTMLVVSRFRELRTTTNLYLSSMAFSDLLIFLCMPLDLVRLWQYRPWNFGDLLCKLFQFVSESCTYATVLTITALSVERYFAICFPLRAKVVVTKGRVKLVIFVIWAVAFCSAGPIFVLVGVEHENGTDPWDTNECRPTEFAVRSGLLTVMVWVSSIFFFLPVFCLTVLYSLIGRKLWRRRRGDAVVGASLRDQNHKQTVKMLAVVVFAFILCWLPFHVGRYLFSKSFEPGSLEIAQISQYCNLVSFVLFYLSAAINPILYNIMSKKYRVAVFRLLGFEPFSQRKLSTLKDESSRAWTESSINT
Note: assay procedure not described here.

Chain of Adenosine receptor A2a (P29274 whole entry): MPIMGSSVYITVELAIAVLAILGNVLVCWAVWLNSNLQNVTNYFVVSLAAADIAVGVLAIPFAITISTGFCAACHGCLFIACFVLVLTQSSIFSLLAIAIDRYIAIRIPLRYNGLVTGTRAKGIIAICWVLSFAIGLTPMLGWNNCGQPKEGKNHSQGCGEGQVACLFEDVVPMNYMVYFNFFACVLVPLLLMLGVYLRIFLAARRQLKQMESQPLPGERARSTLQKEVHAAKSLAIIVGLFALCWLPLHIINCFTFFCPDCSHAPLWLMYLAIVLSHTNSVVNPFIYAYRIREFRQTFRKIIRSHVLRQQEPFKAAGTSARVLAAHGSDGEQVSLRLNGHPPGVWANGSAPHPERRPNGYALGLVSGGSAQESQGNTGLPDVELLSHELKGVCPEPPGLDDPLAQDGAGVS
Chain of Beta-1 adrenergic receptor (P08588 whole entry): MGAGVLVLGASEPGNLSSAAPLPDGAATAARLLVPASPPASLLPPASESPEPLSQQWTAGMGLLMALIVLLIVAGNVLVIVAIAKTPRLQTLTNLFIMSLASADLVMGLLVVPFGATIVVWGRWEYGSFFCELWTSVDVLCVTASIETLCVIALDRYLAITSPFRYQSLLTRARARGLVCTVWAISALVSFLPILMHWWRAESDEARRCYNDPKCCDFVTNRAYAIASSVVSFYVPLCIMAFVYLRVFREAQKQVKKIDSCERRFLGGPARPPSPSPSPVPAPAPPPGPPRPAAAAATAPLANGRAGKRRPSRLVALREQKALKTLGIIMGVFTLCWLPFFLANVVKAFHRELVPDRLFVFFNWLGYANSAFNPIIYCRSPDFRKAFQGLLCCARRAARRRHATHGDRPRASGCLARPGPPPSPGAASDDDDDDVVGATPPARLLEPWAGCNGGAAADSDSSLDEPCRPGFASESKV
Chain of Mu-type opioid receptor (P35372 whole entry): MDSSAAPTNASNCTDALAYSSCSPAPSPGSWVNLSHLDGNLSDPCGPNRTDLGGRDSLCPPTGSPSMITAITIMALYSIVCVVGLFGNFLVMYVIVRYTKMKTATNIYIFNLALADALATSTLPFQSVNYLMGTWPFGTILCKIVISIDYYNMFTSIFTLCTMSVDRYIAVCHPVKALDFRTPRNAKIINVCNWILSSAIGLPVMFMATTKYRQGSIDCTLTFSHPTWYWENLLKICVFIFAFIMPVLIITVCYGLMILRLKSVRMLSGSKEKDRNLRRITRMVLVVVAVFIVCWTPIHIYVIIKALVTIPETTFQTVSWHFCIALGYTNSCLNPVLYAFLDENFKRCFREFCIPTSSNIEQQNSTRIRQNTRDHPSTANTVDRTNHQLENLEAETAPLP

Row | SMILES | AC50 (Mu-type opioid receptor) | AC50 (Adenosine receptor A2a) | AC50 [1] | AC50 [2] | AC50 [3] | AC50 [4] | AC50 [5] | AC50 [6] | AC50 [7]
1 | CC(C)N(CCC(C(N)=O)(c1ccccc1)c1ccccn1)C(C)C (stereo not given) [DISOPYRAMIDE] | > 30 µM | > 30 µM | > 30 µM | > 10 µM | > 30 µM | > 30 µM | > 10 µM | > 10 µM | > 30 µM
2 | CC(N)C12CC3CC(CC(C3)C1)C2 (stereo not given) [RIMANTADINE] | > 30 µM | > 10 µM | > 10 µM | > 10 µM | – | – | > 10 µM | > 30 µM | > 10 µM
3 | C[C@]12C=CC(=O)N[C@@H]1CC[C@@H]1[C@@H]2CC[C@]2(C)[C@@H](C(=O)Nc3cc(C(F)(F)F)ccc3C(F)(F)F)CC[C@@H]12 [DUTASTERIDE] | > 30 µM | > 10 µM | > 10 µM | > 30 µM | > 30 µM | – | > 10 µM | > 30 µM | > 10 µM
4 | CC(C)c1nc(N(C)S(C)(=O)=O)nc(-c2ccc(F)cc2)c1/C=C/[C@@H](O)C[C@@H](O)CC(=O)O [ROSUVASTATIN] | > 30 µM | > 30 µM | > 30 µM | > 30 µM | > 30 µM | > 30 µM | > 30 µM | 4.16 µM | > 30 µM
5 | CC(S)C(=O)NCC(=O)O (stereo not given) [TIOPRONIN] | > 30 µM | > 30 µM | > 30 µM | > 30 µM | > 30 µM | – | – | > 30 µM | > 30 µM
6 | O=C1C(CC[S+]([O-])c2ccccc2)C(=O)N(c2ccccc2)N1c1ccccc1 (stereo not given) [SULFINPYRAZONE] | > 30 µM | > 10 µM | > 10 µM | > 10 µM | > 30 µM | – | > 10 µM | > 30 µM | > 10 µM
7 | Nc1ccc(S(=O)(=O)Nc2nccs2)cc1 [SULFATHIAZOLE] | > 30 µM | > 30 µM | > 10 µM | > 10 µM | > 30 µM | > 30 µM | > 10 µM | > 30 µM | > 30 µM
8 | CCN(CC)CCNC(=O)c1c(C)[nH]c(/C=C2\C(=O)Nc3ccc(F)cc32)c1C [SUNITINIB] | 4.9 µM | 5.3 µM | – | > 30 µM | – | > 10 µM | > 30 µM | 9.8 µM | 7.2 µM
9 | CO[C@H]1/C=C/O[C@@]2(C)Oc3c(C)c(O)c4c(O)c(c(/C=N/N5CCN(C)CC5)c(O)c4c3C2=O)NC(=O)/C(C)=C\C=C\[C@H](C)[C@H](O)[C@@H](C)[C@@H](O)[C@@H](C)[C@H](OC(C)=O)[C@@H]1C [RIFAMPIN] | 8 µM | 13 µM | 28 µM | > 30 µM | > 30 µM | > 30 µM | > 30 µM | 13 µM | > 30 µM
10 | O=C1CCc2cc(OCCCCc3nnnn3C3CCCCC3)ccc2N1 [CILOSTAZOL] | > 30 µM | > 30 µM | > 30 µM | > 30 µM | > 30 µM | > 30 µM | > 30 µM | 23.4 µM | > 30 µM
11 | C[C@H]1c2cccc(O)c2C(=O)C2=C(O)[C@]3(O)C(=O)C(C(N)=O)=C(O)[C@@H](N(C)C)[C@@H]3[C@@H](O)[C@@H]21 [DOXYCYCLINE] | > 30 µM | > 30 µM | > 10 µM | > 10 µM | > 30 µM | > 30 µM | > 10 µM | > 30 µM | > 30 µM
12 | COc1ccccc1OCCNCC(O)COc1cccc2[nH]c3ccccc3c12 (stereo not given) [CARVEDILOL] | 1.7 µM | > 30 µM | – | > 10 µM | > 30 µM | > 30 µM | 5.09 µM | > 10 µM | 14.1 µM
13 | CN1C[C@H](C(=O)N[C@]2(C)O[C@@]3(O)[C@@H]4CCCN4C(=O)[C@H](Cc4ccccc4)N3C2=O)C=C2c3cccc4[nH]cc(c34)C[C@H]21 [ERGOTAMINE] | > 30 µM | > 30 µM | > 30 µM | > 30 µM | 3.1 µM | – | – | > 30 µM | > 30 µM
14 | C=CC[C@@H]1/C=C(\C)C[C@H](C)C[C@H](OC)[C@H]2O[C@@](O)(C(=O)C(=O)N3CCCC[C@H]3C(=O)O[C@H](/C(C)=C/[C@@H]3CC[C@@H](O)[C@H](OC)C3)[C@H](C)[C@@H](O)CC1=O)[C@H](C)C[C@@H]2OC [TACROLIMUS ANHYDROUS] | > 30 µM | > 30 µM | > 30 µM | > 30 µM | > 30 µM | > 30 µM | > 10 µM | > 30 µM | > 30 µM
15 | C[C@H](CCC(=O)O)[C@H]1CC[C@H]2[C@@H]3[C@@H](O)C[C@@H]4C[C@H](O)CC[C@]4(C)[C@H]3CC[C@]12C [URSODIOL] | > 30 µM | > 30 µM | > 30 µM | > 30 µM | > 30 µM | – | – | > 30 µM | > 30 µM
16 | CN(C)CCC[C@@]1(c2ccc(F)cc2)OCc2cc(C#N)ccc21 [ESCITALOPRAM] | – | > 30 µM | > 30 µM | > 30 µM | – | > 30 µM | > 30 µM | > 30 µM | > 30 µM
17 | C[C@@H](NCCCc1cccc(C(F)(F)F)c1)c1cccc2ccccc12 | 2.5 µM | > 30 µM | 8.8 µM | > 30 µM | > 30 µM | > 30 µM | > 30 µM | > 30 µM | 10 µM
18 | N[C@@H](CC(=O)N1CCn2c(nnc2C(F)(F)F)C1)Cc1cc(F)c(F)cc1F [SITAGLIPTIN] | > 30 µM | > 30 µM | > 30 µM | > 30 µM | > 30 µM | > 10 µM | > 10 µM | > 30 µM | > 30 µM
19 | CC(C)(C)NCC(O)c1cc(O)cc(O)c1 (stereo not given) [TERBUTALINE] | – | > 30 µM | – | – | – | > 30 µM | – | – | > 30 µM
20 | CC(C(=O)O)c1ccc2c(c1)[nH]c1ccc(Cl)cc12 (stereo not given) [CARPROFEN] | > 30 µM | > 30 µM | > 30 µM | > 10 µM | – | > 30 µM | > 10 µM | 5.2 µM | > 30 µM
21 | C=C[C@H]1C[N@@]2CC[C@H]1C[C@@H]2[C@@H](O)c1ccnc2ccc(OC)cc12 [QUINIDINE] | 6.2 µM | > 30 µM | – | – | – | > 30 µM | > 10 µM | > 30 µM | > 30 µM
22 | CN(C)CC[C@@H](c1ccc(Cl)cc1)c1ccccn1 [DEXCHLORPHENIRAMINE] | – | > 30 µM | > 30 µM | > 30 µM | > 30 µM | > 30 µM | > 30 µM | > 10 µM | > 30 µM
23 | CN(CC1(C)CCCO1)S(=O)(=O)c1ccc(Cl)c(S(N)(=O)=O)c1 (stereo not given) [MEFRUSIDE] | – | – | – | > 30 µM | > 30 µM | – | > 30 µM | > 30 µM | –
24 | COc1ccc(CC2c3cc(OC)c(OC)cc3CC[N+]2(C)CCC(=O)OCCCCCOC(=O)CC[N+]2(C)CCc3cc(OC)c(OC)cc3C2Cc2ccc(OC)c(OC)c2)cc1OC (stereo not given) | – | > 30 µM | > 30 µM | > 30 µM | > 30 µM | > 30 µM | > 30 µM | > 30 µM | 11.2 µM
25 | CCN1CCN(Cc2ccc(Nc3ncc(F)c(-c4cc(F)c5nc(C)n(C(C)C)c5c4)n3)nc2)CC1 [ABEMACICLIB] | > 30 µM | > 30 µM | > 30 µM | > 30 µM | > 30 µM | – | – | 3.2 µM | > 30 µM
26 | O=C1CN(/N=C/c2ccc(-c3ccc([N+](=O)[O-])cc3)o2)C(O)=N1 [DANTROLENE] | > 30 µM | > 30 µM | > 10 µM | > 10 µM | – | – | > 10 µM | > 30 µM | > 10 µM
27 | C[C@@H](Oc1cc(-c2cnn(C3CCNCC3)c2)cnc1N)c1c(Cl)ccc(F)c1Cl [CRIZOTINIB] | > 30 µM | > 30 µM | > 30 µM | > 30 µM | – | > 30 µM | – | 4.8 µM | 13.9 µM
